Source: ChEMBL document CHEMBL3885881, “DrugMatrix”

Species on record: Rattus norvegicus
Assay: DrugMatrix - Regimen: Daily Repeat
Assay type: toxicity, organism-based, Sprague-Dawley
Set-up: regimen Daily Repeat, gender Male, age 6-8 weeks
Conditions: in vivo, iv, vehicle 100 % SALINE; for ABSOLUTE BASOPHIL / ABSOLUTE EOSINOPHIL / ABSOLUTE LYMPHOCYTE / ABSOLUTE MONOCYTE / ABSOLUTE SEGMENTED NEUTROPHIL / BASOPHIL / EOSINOPHIL / ERYTHROCYTE COUNT / HEMATOCRIT / HEMOGLOBIN / LEUKOCYTE COUNT / LYMPHOCYTE / MEAN CORPUSCULAR HEMOGLOBIN / MEAN CORPUSCULAR HEMOGLOBIN CONCENTRATION / MEAN CORPUSCULAR VOLUME / MONOCYTE / NEUTROPHIL / NUCLEATED RED BLOOD CELLS / PLATELET COUNT: tissue Blood; for ALANINE AMINOTRANSFERASE / ALBUMIN / ALKALINE PHOSPHATASE / ASPARTATE AMINOTRANSFERASE / BLOOD UREA NITROGEN / CARBON DIOXIDE / CHLORIDE / CHOLESTEROL / CREATINE PHOSPHOKINASE / CREATININE / GLUCOSE / LACTATE DEHYDROGENASE / LIPASE / PHOSPHORUS / POTASSIUM / SODIUM / TOTAL BILIRUBIN / TOTAL PROTEIN / URIC ACID: tissue Plasma
[1] = 100 mg/kg, 72 h, dose level Low, time 3 day
[2] = 100 mg/kg, 120 h, dose level Low, time 5 day
[3] = 1000 mg/kg, 72 h, dose level High, time 3 day
[4] = 1000 mg/kg, 120 h, dose level High, time 5 day

SMILES: OC[C@@H](O)[C@@H](O)[C@H](O)[C@H](O)CO [MANNITOL]
- ABSOLUTE BASOPHIL [1]: 0 CELLS/uL
- ABSOLUTE EOSINOPHIL [1]: 269 CELLS/uL
- ABSOLUTE LYMPHOCYTE [1]: 11772.67 CELLS/uL
- ABSOLUTE MONOCYTE [1]: 286.33 CELLS/uL
- ABSOLUTE SEGMENTED NEUTROPHIL [1]: 638.67 CELLS/uL
- BASOPHIL [1]: 0%
- EOSINOPHIL [1]: 2%
- ERYTHROCYTE COUNT [1]: 5.91 x10E6/uL
- HEMATOCRIT [1]: 37.23%
- HEMOGLOBIN [1]: 13.83 G/DL
- LEUKOCYTE COUNT [1]: 12.97 x10E3/uL
- LYMPHOCYTE [1]: 90.67%
- MEAN CORPUSCULAR HEMOGLOBIN [1]: 23.43 pg
- MEAN CORPUSCULAR HEMOGLOBIN CONCENTRATION [1]: 37.1 G/DL
- MEAN CORPUSCULAR VOLUME [1]: 62.97 fL
- MONOCYTE [1]: 2.33%
- NEUTROPHIL [1]: 5%
- NUCLEATED RED BLOOD CELLS [1]: 0 /100WBC
- PLATELET COUNT [1]: 1250.33 x10E3/uL
- ALANINE AMINOTRANSFERASE [1]: 48.67 u/L
- ALBUMIN [1]: 4.13 G/DL
- ALKALINE PHOSPHATASE [1]: 350 u/L
- ASPARTATE AMINOTRANSFERASE [1]: 97.33 u/L
- BLOOD UREA NITROGEN [1]: 16.33 mg/dL
- CARBON DIOXIDE [1]: 24.67 mmol/L
- CHLORIDE [1]: 104 MEQ/L
- CHOLESTEROL [1]: 77.67 mg/dL
- CREATINE PHOSPHOKINASE [1]: 393.67 u/L
- CREATININE [1]: 0.2 mg/dL
- GLUCOSE [1]: 160.33 mg/dL
- LACTATE DEHYDROGENASE [1]: 480.67 u/L
- LIPASE [1]: 8.67 u/L
- PHOSPHORUS [1]: 13.8 mg/dL
- POTASSIUM [1]: 6.9 MEQ/L
- SODIUM [1]: 146.1 MEQ/L
- TOTAL BILIRUBIN [1]: 0.2 mg/dL
- TOTAL PROTEIN [1]: 5.93 G/DL
- URIC ACID [1]: 1.7 mg/dL
- ABSOLUTE BASOPHIL [2]: 0 CELLS/uL
- ABSOLUTE EOSINOPHIL [2]: 0 CELLS/uL
- ABSOLUTE LYMPHOCYTE [2]: 12262.33 CELLS/uL
- ABSOLUTE MONOCYTE [2]: 402.33 CELLS/uL
- ABSOLUTE SEGMENTED NEUTROPHIL [2]: 1202 CELLS/uL
- BASOPHIL [2]: 0%
- EOSINOPHIL [2]: 0%
- ERYTHROCYTE COUNT [2]: 5.62 x10E6/uL
- HEMATOCRIT [2]: 34.87%
- HEMOGLOBIN [2]: 12.8 G/DL
- LEUKOCYTE COUNT [2]: 13.87 x10E3/uL
- LYMPHOCYTE [2]: 88.33%
- MEAN CORPUSCULAR HEMOGLOBIN [2]: 22.77 pg
- MEAN CORPUSCULAR HEMOGLOBIN CONCENTRATION [2]: 36.73 G/DL
- MEAN CORPUSCULAR VOLUME [2]: 62 fL
- MONOCYTE [2]: 3%
- NEUTROPHIL [2]: 8.67%
- NUCLEATED RED BLOOD CELLS [2]: 0 /100WBC
- PLATELET COUNT [2]: 1182.33 x10E3/uL
- ALANINE AMINOTRANSFERASE [2]: 73.33 u/L
- ALBUMIN [2]: 4.27 G/DL
- ALKALINE PHOSPHATASE [2]: 396 u/L
- ASPARTATE AMINOTRANSFERASE [2]: 130.33 u/L
- BLOOD UREA NITROGEN [2]: 17.67 mg/dL
- CARBON DIOXIDE [2]: 21.67 mmol/L
- CHLORIDE [2]: 110.67 MEQ/L
- CHOLESTEROL [2]: 83 mg/dL
- CREATINE PHOSPHOKINASE [2]: 1094.67 u/L
- CREATININE [2]: 0.15 mg/dL
- GLUCOSE [2]: 196.33 mg/dL
- LACTATE DEHYDROGENASE [2]: 396.67 u/L
- LIPASE [2]: 9.67 u/L
- PHOSPHORUS [2]: 14.1 mg/dL
- POTASSIUM [2]: 6.09 MEQ/L
- SODIUM [2]: 148.6 MEQ/L
- TOTAL BILIRUBIN [2]: 0.13 mg/dL
- TOTAL PROTEIN [2]: 5.73 G/DL
- URIC ACID [2]: 2.53 mg/dL
- ABSOLUTE BASOPHIL [3]: 0 CELLS/uL
- ABSOLUTE EOSINOPHIL [3]: 168 CELLS/uL
- ABSOLUTE LYMPHOCYTE [3]: 12528 CELLS/uL
- ABSOLUTE MONOCYTE [3]: 421 CELLS/uL
- ABSOLUTE SEGMENTED NEUTROPHIL [3]: 916.33 CELLS/uL
- BASOPHIL [3]: 0%
- EOSINOPHIL [3]: 1.33%
- ERYTHROCYTE COUNT [3]: 5.26 x10E6/uL
- HEMATOCRIT [3]: 34.8%
- HEMOGLOBIN [3]: 13.1 G/DL
- LEUKOCYTE COUNT [3]: 14.03 x10E3/uL
- LYMPHOCYTE [3]: 89%
- MEAN CORPUSCULAR HEMOGLOBIN [3]: 24.9 pg
- MEAN CORPUSCULAR HEMOGLOBIN CONCENTRATION [3]: 37.7 G/DL
- MEAN CORPUSCULAR VOLUME [3]: 66.13 fL
- MONOCYTE [3]: 3%
- NEUTROPHIL [3]: 6.67%
- NUCLEATED RED BLOOD CELLS [3]: 0 /100WBC
- PLATELET COUNT [3]: 1218.33 x10E3/uL
- ALANINE AMINOTRANSFERASE [3]: 45 u/L
- ALBUMIN [3]: 4.1 G/DL
- ALKALINE PHOSPHATASE [3]: 339.33 u/L
- ASPARTATE AMINOTRANSFERASE [3]: 74.33 u/L
- BLOOD UREA NITROGEN [3]: 14.67 mg/dL
- CARBON DIOXIDE [3]: 21.67 mmol/L
- CHLORIDE [3]: 105 MEQ/L
- CHOLESTEROL [3]: 68.33 mg/dL
- CREATINE PHOSPHOKINASE [3]: 402.67 u/L
- CREATININE [3]: 0.13 mg/dL
- GLUCOSE [3]: 181.67 mg/dL
- LACTATE DEHYDROGENASE [3]: 239.67 u/L
- LIPASE [3]: 9.33 u/L
- PHOSPHORUS [3]: 14.13 mg/dL
- POTASSIUM [3]: 6.11 MEQ/L
- SODIUM [3]: 145 MEQ/L
- TOTAL BILIRUBIN [3]: 0.23 mg/dL
- TOTAL PROTEIN [3]: 5.93 G/DL
- URIC ACID [3]: 1.77 mg/dL
- ABSOLUTE BASOPHIL [4]: 0 CELLS/uL
- ABSOLUTE EOSINOPHIL [4]: 45 CELLS/uL
- ABSOLUTE LYMPHOCYTE [4]: 12203.33 CELLS/uL
- ABSOLUTE MONOCYTE [4]: 139 CELLS/uL
- ABSOLUTE SEGMENTED NEUTROPHIL [4]: 779.33 CELLS/uL
- BASOPHIL [4]: 0%
- EOSINOPHIL [4]: 0.33%
- ERYTHROCYTE COUNT [4]: 5.59 x10E6/uL
- HEMATOCRIT [4]: 35.07%
- HEMOGLOBIN [4]: 13.4 G/DL
- LEUKOCYTE COUNT [4]: 13.17 x10E3/uL
- LYMPHOCYTE [4]: 92.67%
- MEAN CORPUSCULAR HEMOGLOBIN [4]: 23.97 pg
- MEAN CORPUSCULAR HEMOGLOBIN CONCENTRATION [4]: 38.27 G/DL
- MEAN CORPUSCULAR VOLUME [4]: 62.67 fL
- MONOCYTE [4]: 1%
- NEUTROPHIL [4]: 6%
- NUCLEATED RED BLOOD CELLS [4]: 0 /100WBC
- PLATELET COUNT [4]: 1310 x10E3/uL
- ALANINE AMINOTRANSFERASE [4]: 39 u/L
- ALBUMIN [4]: 4.3 G/DL
- ALKALINE PHOSPHATASE [4]: 331.67 u/L
- ASPARTATE AMINOTRANSFERASE [4]: 64.67 u/L
- BLOOD UREA NITROGEN [4]: 17.33 mg/dL
- CARBON DIOXIDE [4]: 25.67 mmol/L
- CHLORIDE [4]: 109.67 MEQ/L
- CHOLESTEROL [4]: 67.67 mg/dL
- CREATINE PHOSPHOKINASE [4]: 165.33 u/L
- CREATININE [4]: 0.19 mg/dL
- GLUCOSE [4]: 172.33 mg/dL
- LACTATE DEHYDROGENASE [4]: 106.33 u/L
- LIPASE [4]: 8.67 u/L
- PHOSPHORUS [4]: 12.67 mg/dL
- POTASSIUM [4]: 6.4 MEQ/L
- SODIUM [4]: 148.93 MEQ/L
- TOTAL BILIRUBIN [4]: 0.2 mg/dL
- TOTAL PROTEIN [4]: 6.3 G/DL
- URIC ACID [4]: 1.67 mg/dL
